From ChEMBL document CHEMBL1201862, “PubChem BioAssay data set” (2004)
Calls of active or inactive are those of the source.

Tests used:
[1] = target: T1, Polyadenylate-binding protein 1 (Homo sapiens, UniProt P11940); test: PABP1 MLLE–PAM2 interaction inhibitors, dose response, miRNA deadenylation inhibitor project, biochemical, fluorescence polarization, Cy5-PAM2 peptide, secondary (AID 602260); assay type: functional; settings: read-out: IC50_Mean
[2] = target: T1, Polyadenylate-binding protein 1; test: PABP1 MLLE–PAM2 binding inhibitor potency, dose response, biochemical, fluorescence polarization, FITC-PAM2 peptide (AID 602259); assay type: functional; settings: read-out: IC50_Mean
[3] = target: Voltage-gated inwardly rectifying potassium channel KCNH2 (Homo sapiens, UniProt Q12809); test: hERG protection from proarrhythmic block, potency, dose response, cell-based, thallium flux (AID 2121); assay type: ADME
[4] = target: Prothrombin (Homo sapiens, UniProt P00734); test: Thrombin 1536 HTS Dose Response Confirmation. [Related pubchem assays: 1046 (Thrombin 1536 HTS; hits were confirmed in this assay)]; assay type: functional
[5] = target: T2, Insulin-degrading enzyme (Homo sapiens, UniProt P14735); test: Dose Response: Fluorescence polarization-based cell-based high throughput dose response assay for inhibitors of insulin-degrading enzyme (IDE). [Related pubchem assays: 434962 (Primary screen (IDE inhibitors in singlicate)), 449730 (Counterscreen (Cytotoxicity in triplicate)), 435028 (Confirmation (IDE inhibitors in triplicate)), 434984 (Summary …; assay type: functional
T2 sequence (P14735 whole entry): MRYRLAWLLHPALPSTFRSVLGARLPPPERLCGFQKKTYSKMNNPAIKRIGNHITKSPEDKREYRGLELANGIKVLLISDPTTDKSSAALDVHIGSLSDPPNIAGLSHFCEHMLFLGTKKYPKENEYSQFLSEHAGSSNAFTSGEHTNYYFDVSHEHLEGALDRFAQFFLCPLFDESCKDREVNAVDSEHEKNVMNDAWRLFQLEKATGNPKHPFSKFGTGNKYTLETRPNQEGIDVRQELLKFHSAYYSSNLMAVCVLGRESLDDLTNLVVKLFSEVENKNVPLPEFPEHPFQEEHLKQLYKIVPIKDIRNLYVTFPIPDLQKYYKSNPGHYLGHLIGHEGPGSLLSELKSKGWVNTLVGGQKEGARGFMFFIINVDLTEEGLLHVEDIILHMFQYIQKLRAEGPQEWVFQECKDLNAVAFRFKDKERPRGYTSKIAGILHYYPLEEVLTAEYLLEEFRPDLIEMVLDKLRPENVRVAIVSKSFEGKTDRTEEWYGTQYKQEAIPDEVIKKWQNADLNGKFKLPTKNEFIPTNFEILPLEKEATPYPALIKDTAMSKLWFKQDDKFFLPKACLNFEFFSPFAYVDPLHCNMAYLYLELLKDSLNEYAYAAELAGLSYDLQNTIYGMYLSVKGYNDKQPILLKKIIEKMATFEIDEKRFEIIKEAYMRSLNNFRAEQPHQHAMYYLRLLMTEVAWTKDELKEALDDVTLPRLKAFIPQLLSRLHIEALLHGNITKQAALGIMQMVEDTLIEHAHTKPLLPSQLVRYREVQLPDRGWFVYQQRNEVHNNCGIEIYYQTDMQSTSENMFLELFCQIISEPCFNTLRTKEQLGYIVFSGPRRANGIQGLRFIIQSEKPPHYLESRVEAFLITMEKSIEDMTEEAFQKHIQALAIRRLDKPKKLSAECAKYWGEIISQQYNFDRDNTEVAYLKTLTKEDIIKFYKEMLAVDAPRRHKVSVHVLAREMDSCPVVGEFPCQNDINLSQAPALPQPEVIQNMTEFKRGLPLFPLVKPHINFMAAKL

[6] = target: T3, RNA-binding protein pos-1 (Caenorhabditis elegans, UniProt G5EF15); test: inhibitors of POS-1/mex-3 RNA binding, dose response, biochemical, fluorescence polarization (AID 1964);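 also: purified POS-1 fused to maltose binding protein made in E. coli; potency of compounds blocking POS-1 binding to fluorescent RNA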
T3 sequence (G5EF15 whole entry): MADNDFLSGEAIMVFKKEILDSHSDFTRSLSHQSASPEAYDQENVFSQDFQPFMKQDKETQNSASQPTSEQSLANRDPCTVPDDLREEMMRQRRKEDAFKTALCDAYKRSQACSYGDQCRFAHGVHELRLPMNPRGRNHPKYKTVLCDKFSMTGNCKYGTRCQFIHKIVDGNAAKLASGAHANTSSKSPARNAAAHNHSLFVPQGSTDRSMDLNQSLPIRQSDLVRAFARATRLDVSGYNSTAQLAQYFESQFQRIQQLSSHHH

[7] = Counterscreen for IDE inhibitors: Luminescence-based cell-based high throughput dose response assay to identify compounds that are cytotoxic to HEK cells. [Related pubchem assays: 434962 (Primary screen (IDE inhibitors in singlicate)), 449730 (Counterscreen (Cytotoxicity in triplicate)), 435028 (Confirmation (IDE inhibitors in triplicate)) …; assay type: functional; settings: HEK293
[8] = target: T4, Zinc finger protein mex-5 (Caenorhabditis elegans, UniProt Q9XUB2); test: MEX-5/TCR-2 RNA interaction inhibitors, dose response, biochemical, C. elegans, fluorescence polarization (AID 1960)
T4 sequence (Q9XUB2 whole entry): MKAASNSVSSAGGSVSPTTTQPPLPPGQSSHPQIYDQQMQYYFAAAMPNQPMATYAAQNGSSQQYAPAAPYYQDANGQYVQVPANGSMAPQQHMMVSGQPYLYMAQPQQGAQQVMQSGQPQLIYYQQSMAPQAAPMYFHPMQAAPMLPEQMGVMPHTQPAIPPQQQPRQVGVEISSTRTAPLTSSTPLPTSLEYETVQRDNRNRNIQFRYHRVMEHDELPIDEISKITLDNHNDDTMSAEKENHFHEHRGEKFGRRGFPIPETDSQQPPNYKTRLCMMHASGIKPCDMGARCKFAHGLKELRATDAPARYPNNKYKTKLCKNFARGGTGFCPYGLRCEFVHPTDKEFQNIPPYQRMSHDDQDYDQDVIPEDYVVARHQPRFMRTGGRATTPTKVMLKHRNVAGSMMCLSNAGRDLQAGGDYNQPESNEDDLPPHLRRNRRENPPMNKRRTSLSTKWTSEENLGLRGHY

[9] = P. falciparum 3D7-ScDHODH growth inhibitors, dose response, SYBR Green, dry powder samples (AID 1159570); assay type: functional, cell-based;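 also: parasite growth measured after 72 hours of compound exposure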
[10] = IGROV1 ovarian cancer cell cytotoxicity, dose response, PAX8 inhibitor project, plate reader, dry powder samples (AID 743043); assay type: functional, cell-based; settings: IGROV-1
[11] = P. falciparum Dd2 growth inhibitors, dose response, SYBR Green, cherry-picked samples (AID 1159567); assay type: functional, cell-based
[12] = target: Disintegrin and metalloproteinase domain-containing protein 17 (Homo sapiens, UniProt P78536); test: ADAM17 protease inhibitors, dose response, counter-screen for ADAM10 exosite inhibitor project, biochemical, quenched FRET substrate (AID 743253)
[13] = P. falciparum Dd2 growth inhibitors, dose response, SYBR Green, dry powder samples (AID 1159566); assay type: functional, cell-based;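 also: potency for growth inhibition with lower SYBR green DNA signal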
[14] = target: Paired box protein Pax-8 (Homo sapiens, UniProt Q06710); test: inhibitors of PAX8-driven TPO luciferase reporter, dose response, RMG-I cells, cherry-pick (AID 687027); assay type: functional, cell-based;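 also: luciferase reporter driven by Pax8 target thyroperoxidase promoter measured by SteadyGlo luminescence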
[15] = test system: HEK293; test: cells; settings: Homo sapiens
[16] = P. falciparum ATP4 D1247Y mutant growth inhibitors, dose response, NITD609-resistant line, SYBR Green, dry powder (AID 1159571); assay type: functional, cell-based;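 also: parasites synchronized at ring stage by sorbitol before testing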
[17] = HepG2 cell cytotoxicity, dose response, cytotoxicity control, plate reader, dry powder samples (AID 1159569); assay type: functional, cell-based;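 also: inhibitor potency with signal falling toward the positive control level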
[18] = NIH:OVCAR-3 ovarian cancer cell cytotoxicity, dose response, PAX8 inhibitor project, plate reader, dry powder samples (AID 743044); assay type: functional, cell-based
[19] = cytotoxicity in OVCAR8 ovarian cancer cells, dose response, PAX8 project, cell-based, plate reader, dry powder samples (AID 743197); assay type: functional; settings: OVCAR-8
[20] = test system: HEK293; test: cells; settings: Homo sapiens; remark: listed apart in the source
[21] = ADAM10 inhibitors, peptide cleavage, dose response, biochemical, QFRET (AID 743254);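 also: ADAM10 enzyme with the DM2 quenched FRET peptide as substrate; EDANS fluorescence gain as the protease cuts the substrate; inhibitor potency against ADAM10 proteolytic activity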
[22] = target: Kallikrein-7 (Homo sapiens, UniProt P49862); test: Fluorescence Intensity-based biochemical primary high throughput dose response assay to identify activators of kallikrein-7 (K7) zymogen.
[23] = A2780 ovarian cancer cell cytotoxicity, dose response, cytotoxicity control, plate reader, dry powder samples (AID 743046); assay type: functional, cell-based
[24] = IOSE-T80 ovarian epithelial cell cytotoxicity, dose response, cytotoxicity control for PAX8 inhibitor project, plate reader, dry powder samples (AID 743045); assay type: functional, cell-based
[25] = target: Cytochrome P450 2C19 (Homo sapiens, UniProt P33261); test: Cytochrome panel assay with activity outcomes. Panel member name: p450-cyp2c19 Compounds with AC50 equal or less than 10 uM are considered active; assay type: functional; settings: read-out: AC50
[26] = test system: HT-1080; test: cytotoxicity in HT1080 fibrosarcoma cells, cell-based, fluorescence readout (AID 620); assay type: functional; settings: Homo sapiens
[27] = target: Luciferin 4-monooxygenase (Photinus pyralis, UniProt P08659); test: Counter Screen for Luciferase-based Assay Positives. [Related pubchem assays: 620, 618, 411 ]
[28] = cytotoxicity toward HT-29 cells – cell-based, CellTiter-Glo luminescence, IC50, dose response (AID 1117330); assay type: functional
[29] = RKO cell viability reduction, dose response, CellTiter-Glo luminescence (AID 1117322); assay type: functional
[30] = cytotoxicity toward Colo320 cells – cell-based, CellTiter-Glo luminescence, IC50, dose response (AID 1117334); assay type: functional; settings: COLO 320
[31] = Concentration-dependent survival of SW480 colon cancer line, luminescence detection with CellTiter-Glo, half-maximal inhibitory concentration (AID 1117338); assay type: functional
[32] = cytotoxicity toward HCT116 cells – cell-based, CellTiter-Glo luminescence, IC50, dose response (AID 1117332); assay type: functional; settings: HCT-116
[33] = CellTiter-Glo luminescent dose response of DLD-1 viability loss (AID 1117352); assay type: functional
[34] = SNU-C1 cell viability reduction, dose response, CellTiter-Glo luminescence (AID 1117323); assay type: functional, cell-based

T1 sequence (P11940 whole entry): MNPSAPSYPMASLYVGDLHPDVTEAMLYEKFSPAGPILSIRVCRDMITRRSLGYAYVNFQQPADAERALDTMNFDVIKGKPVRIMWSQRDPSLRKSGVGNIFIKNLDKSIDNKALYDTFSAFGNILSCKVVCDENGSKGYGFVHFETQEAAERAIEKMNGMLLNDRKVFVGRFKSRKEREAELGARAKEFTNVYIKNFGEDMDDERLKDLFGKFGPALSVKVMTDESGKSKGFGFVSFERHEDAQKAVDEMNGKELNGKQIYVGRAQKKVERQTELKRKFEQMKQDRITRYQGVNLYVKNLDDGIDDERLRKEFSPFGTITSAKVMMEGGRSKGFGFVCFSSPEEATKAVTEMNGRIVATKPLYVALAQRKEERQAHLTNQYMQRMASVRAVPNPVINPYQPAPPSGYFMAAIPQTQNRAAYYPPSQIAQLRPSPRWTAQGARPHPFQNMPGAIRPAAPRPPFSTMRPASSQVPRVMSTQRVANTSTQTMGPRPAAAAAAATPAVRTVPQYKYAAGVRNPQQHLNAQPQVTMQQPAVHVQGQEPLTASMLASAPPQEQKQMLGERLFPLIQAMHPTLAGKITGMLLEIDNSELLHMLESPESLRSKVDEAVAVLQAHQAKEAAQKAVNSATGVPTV
Paired box protein Pax-8, sequence (Q06710 whole entry): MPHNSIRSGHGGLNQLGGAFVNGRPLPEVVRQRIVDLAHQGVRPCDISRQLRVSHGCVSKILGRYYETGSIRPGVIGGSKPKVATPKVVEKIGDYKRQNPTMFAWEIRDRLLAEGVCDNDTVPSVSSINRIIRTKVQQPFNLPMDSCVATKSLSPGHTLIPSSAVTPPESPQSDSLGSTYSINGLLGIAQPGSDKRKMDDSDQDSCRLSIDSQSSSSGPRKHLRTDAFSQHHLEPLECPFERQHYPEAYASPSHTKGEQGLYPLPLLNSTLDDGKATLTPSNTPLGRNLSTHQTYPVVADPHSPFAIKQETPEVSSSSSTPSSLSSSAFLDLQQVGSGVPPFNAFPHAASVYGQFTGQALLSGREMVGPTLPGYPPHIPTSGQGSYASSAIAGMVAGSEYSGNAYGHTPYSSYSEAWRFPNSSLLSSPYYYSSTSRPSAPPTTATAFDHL
Luciferin 4-monooxygenase, sequence (P08659 whole entry): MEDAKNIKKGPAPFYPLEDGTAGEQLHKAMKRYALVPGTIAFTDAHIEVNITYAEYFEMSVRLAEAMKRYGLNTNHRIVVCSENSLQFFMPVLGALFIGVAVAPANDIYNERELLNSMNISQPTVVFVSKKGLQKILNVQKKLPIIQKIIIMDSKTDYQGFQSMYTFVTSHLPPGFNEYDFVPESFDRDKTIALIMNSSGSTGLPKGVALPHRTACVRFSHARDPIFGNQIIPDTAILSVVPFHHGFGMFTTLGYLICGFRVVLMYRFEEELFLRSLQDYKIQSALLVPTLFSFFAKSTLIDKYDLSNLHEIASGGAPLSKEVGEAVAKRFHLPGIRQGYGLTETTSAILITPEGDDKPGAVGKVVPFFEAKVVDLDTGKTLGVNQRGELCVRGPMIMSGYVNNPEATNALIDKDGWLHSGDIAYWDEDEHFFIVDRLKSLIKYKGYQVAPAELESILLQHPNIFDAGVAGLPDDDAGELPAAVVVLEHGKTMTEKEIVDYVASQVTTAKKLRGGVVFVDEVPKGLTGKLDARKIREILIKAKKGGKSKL
Disintegrin and metalloproteinase domain-containing protein 17, sequence (P78536 whole entry, the tested form may be a part): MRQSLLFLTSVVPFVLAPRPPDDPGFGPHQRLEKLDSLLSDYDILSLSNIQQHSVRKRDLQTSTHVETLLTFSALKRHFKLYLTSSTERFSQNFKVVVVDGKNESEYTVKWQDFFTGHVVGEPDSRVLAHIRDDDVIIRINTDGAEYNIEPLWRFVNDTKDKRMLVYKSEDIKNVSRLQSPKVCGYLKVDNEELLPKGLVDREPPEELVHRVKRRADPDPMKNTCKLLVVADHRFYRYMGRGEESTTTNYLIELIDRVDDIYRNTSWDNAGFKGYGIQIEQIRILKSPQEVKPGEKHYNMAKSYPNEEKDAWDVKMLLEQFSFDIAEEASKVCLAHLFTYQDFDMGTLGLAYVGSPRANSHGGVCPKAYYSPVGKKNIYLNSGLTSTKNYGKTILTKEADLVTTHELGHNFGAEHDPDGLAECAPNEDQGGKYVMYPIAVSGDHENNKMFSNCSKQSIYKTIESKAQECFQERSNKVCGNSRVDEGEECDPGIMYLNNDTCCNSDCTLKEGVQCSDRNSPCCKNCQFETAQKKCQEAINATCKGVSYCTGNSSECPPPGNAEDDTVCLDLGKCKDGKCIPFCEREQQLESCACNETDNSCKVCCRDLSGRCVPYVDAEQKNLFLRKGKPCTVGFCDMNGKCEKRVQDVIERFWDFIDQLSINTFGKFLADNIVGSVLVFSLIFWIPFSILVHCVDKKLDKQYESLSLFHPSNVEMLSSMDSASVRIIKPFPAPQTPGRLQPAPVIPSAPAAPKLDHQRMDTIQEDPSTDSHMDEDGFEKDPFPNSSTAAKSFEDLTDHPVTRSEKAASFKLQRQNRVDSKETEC
Kallikrein-7, sequence (P49862 whole entry): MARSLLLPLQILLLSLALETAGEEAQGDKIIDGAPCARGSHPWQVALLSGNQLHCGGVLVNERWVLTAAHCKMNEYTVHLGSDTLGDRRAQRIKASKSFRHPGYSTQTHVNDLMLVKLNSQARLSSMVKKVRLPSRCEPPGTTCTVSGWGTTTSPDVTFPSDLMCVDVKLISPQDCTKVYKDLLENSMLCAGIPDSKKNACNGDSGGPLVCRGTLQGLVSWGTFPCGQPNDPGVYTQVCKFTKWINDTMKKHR
Cytochrome P450 2C19, sequence (P33261 whole entry): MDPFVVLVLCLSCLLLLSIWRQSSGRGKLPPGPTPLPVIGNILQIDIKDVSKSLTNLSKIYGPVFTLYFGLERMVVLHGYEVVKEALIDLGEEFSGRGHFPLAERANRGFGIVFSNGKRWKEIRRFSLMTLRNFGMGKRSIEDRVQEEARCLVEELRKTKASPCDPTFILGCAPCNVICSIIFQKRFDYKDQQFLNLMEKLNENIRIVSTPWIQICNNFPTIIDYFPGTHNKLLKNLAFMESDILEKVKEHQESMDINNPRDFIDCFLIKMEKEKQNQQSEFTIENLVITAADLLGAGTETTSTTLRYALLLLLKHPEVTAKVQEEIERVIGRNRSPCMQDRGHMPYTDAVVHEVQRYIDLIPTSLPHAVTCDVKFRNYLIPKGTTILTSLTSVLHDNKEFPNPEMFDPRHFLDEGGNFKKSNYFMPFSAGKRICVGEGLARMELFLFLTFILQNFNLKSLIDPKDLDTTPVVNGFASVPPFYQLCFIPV
Voltage-gated inwardly rectifying potassium channel KCNH2, sequence (Q12809 whole entry): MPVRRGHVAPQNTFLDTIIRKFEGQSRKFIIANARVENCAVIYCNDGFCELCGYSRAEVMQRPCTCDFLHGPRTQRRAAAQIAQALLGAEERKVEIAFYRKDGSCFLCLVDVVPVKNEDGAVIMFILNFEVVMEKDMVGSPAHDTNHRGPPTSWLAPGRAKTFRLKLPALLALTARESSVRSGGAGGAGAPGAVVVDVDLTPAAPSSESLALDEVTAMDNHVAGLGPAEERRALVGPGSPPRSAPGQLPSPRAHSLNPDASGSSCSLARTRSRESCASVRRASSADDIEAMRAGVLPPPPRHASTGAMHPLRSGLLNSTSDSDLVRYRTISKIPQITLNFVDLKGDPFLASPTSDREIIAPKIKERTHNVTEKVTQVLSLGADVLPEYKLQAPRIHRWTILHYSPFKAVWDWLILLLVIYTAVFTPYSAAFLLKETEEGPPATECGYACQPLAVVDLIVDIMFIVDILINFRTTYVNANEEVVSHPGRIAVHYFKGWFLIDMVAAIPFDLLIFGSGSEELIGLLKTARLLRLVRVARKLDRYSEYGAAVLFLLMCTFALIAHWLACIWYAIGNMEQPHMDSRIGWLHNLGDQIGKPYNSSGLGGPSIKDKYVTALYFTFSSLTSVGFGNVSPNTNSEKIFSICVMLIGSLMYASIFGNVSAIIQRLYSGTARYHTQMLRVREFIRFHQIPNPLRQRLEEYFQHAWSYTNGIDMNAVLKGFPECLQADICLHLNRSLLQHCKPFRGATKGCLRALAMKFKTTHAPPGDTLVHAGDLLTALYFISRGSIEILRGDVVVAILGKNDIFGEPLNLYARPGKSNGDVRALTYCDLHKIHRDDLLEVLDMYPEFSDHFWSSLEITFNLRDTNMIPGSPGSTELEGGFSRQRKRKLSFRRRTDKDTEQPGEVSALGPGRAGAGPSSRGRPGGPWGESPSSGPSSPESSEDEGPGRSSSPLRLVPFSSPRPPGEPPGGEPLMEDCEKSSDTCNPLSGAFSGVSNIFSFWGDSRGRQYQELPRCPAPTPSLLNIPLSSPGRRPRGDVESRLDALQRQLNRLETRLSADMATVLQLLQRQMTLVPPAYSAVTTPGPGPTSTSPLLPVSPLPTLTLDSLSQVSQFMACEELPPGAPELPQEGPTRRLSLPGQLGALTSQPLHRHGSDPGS

In the case of `O=C(NC(=S)Nc1nc(-c2ccccc2)cs1)c1cncc(Br)c1`, the IC50 [1] is reported as > 66 µM (inactive), the IC50 [2] is reported as > 66 µM (inactive) and the EC50 [3] is reported as 11.2 µM (active).
In the case of `CN(C)S(=O)(=O)c1ccc(C(=O)Oc2cc(O)nc3ccccc23)cc1`, the IC50 [4] is reported as 0.812 µM (active).
With `COc1ccc(-n2c(C)cc(/C=C3\SC(=S)N(Cc4ccco4)C3=O)c2C)cc1` the IC50 [5] was > 55.9 µM (not active), the EC50 [6] was > 300 µM (not active) and the IC50 [7] was 38 µM (not active). For the same compound, the EC50 [8] was 121 µM (active).
In the case of `CCc1ccccc1N1C(=O)CC(=O)NC1=O`, the IC50 [4] is reported as > 50 µM (not active).
For `C[C@H](CO)N1C[C@H](C)[C@H](CN(C)S(=O)(=O)c2ccc(Cl)cc2)OCc2ccccc2-c2c(n(C)c3ccccc23)C1=O`, the AC50 [9] was 0.193 µM (active), the AC50 [10] was 62.3 µM (active) and the AC50 [11] was < 0.35 µM (active). The IC50 [12] was > 69.5 µM (inactive), the AC50 [13] was 0.0741 µM (active) and the AC50 [14] was 4.86 µM (active). The EC50 [15] was > 59.7 µM (inactive), the AC50 [16] was 0.129 µM (active) and the AC50 [17] was 35.5 µM (active). For the same compound, the AC50 [18] was 26.2 µM (active), the AC50 [19] was 41.6 µM (active) and the EC50 [20] was > 59.7 µM (inactive). For the same compound, the IC50 [21] was 9.56 µM (active).
For `CC(c1nc2ccccc2[nH]1)n1c(=O)c(-c2cccs2)nc2ccccc21` (centres undefined), the EC50 [22] was 8.14 µM (active).
In the case of `C[C@H](CO)N1C[C@H](C)[C@@H](CN(C)Cc2ccncc2)Oc2ccc(NC(=O)Nc3ccc(C(F)(F)F)cc3)cc2CC1=O`, the AC50 [10] is reported as 26.8 µM (active), the AC50 [14] is reported as 5.69 µM (active) and the AC50 [18] is reported as 22.8 µM (active). For the same compound, the AC50 [19] was > 70 µM (inactive), the AC50 [23] was 32.5 µM (active) and the AC50 [24] was 37.6 µM (active).
With `Cc1oncc1C(=O)Nc1ccc(C(F)(F)F)cc1` [LEFLUNOMIDE] the AC50 [25] was 15.8 µM (inconclusive), the EC50 [26] was > 50 µM (not active) and the EC50 [27] was 0.84 µM (active).
With `NC(=O)N/N=C/c1ccc([N+](=O)[O-])o1` [NITROFURAZONE] the IC50 [28] was > 20 µM (inactive), the IC50 [29] was > 20 µM (inactive) and the IC50 [30] was > 20 µM (inactive). The IC50 [31] was > 20 µM (inactive), the IC50 [32] was > 20 µM (inactive) and the IC50 [33] was > 20 µM (inactive). For the same compound, the IC50 [34] was > 20 µM (inactive).
